Experimental data as given in PubChem BioAssay AID248 (DTP/NCI, 2004).
Where “and” joins values, the source holds several entries; their conditions need not be identical. Identical values can stand only once. Inconclusive results and toxic doses are left out. Cut-off read from the data, not from the text of the source: active = T/C of 150% or more; inactive = T/C below 125%.

System: L1210 leukemia ip in BDF1 mice, survival T/C
Assay: NCI In Vivo Anticancer Drug Screen. Data for tumor model L1210 Leukemia (intraperitoneal) in B6D2F1 (BDF1) mice
Settings: endpoint: mean survival time, higher = longer survival
In short: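 In this screen, tumor-bearing mice given compound are compared to those given vehicle, and their survival values are reported as a treated-to-control quotient.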

[1] = dose: 100.0 mg/kg/injection, schedule: Q01DX009 (ip), vehicle: saline
[2] = dose: 200.0 mg/kg/injection, schedule: Q01DX009 (ip), vehicle: saline
[3] = dose: 400.0 mg/kg/injection, schedule: Q01DX009 (ip), vehicle: saline
[4] = dose: 100.0 mg/kg/injection, schedule: Q01DX001 (ip), vehicle: Klucel (hydroxypropylcellulose) (HPC)
[5] = dose: 400.0 mg/kg/injection, schedule: Q01DX001 (ip), vehicle: Klucel (hydroxypropylcellulose) (HPC)
[6] = dose: 100.0 mg/kg/injection, schedule: Q01DX001 (ip), vehicle: saline
[7] = dose: 200.0 mg/kg/injection, schedule: Q01DX001 (ip), vehicle: saline
[8] = dose: 400.0 mg/kg/injection, schedule: Q01DX001 (ip), vehicle: saline
[9] = dose: 100.0 mg/kg/injection, schedule: Q01DX009 (ip), vehicle: Klucel (hydroxypropylcellulose) (HPC)
[10] = dose: 200.0 mg/kg/injection, schedule: Q01DX009 (ip), vehicle: Klucel (hydroxypropylcellulose) (HPC)

Measured: T/C

COc1ccc2nc3cc(Cl)ccc3c(Nc3ccc(O)c(CN4CCN(C)CC4)c3)c2c1
inactive: dose: 75.0 mg/kg/injection, schedule: Q01DX001 (ip), vehicle: other 96 % of control | dose: 75.0 mg/kg/injection, schedule: Q04DX003 (ip), vehicle: other 94 % of control | dose: 150.0 mg/kg/injection, schedule: Q01DX001 (ip), vehicle: other 100 % of control | dose: 150.0 mg/kg/injection, schedule: Q04DX003 (ip), vehicle: other 97 % of control | dose: 300.0 mg/kg/injection, schedule: Q01DX001 (ip), vehicle: other 97 % of control

CC(=O)c1cc2ccccc2oc1=O
inactive: dose: 100.0 mg/kg/injection, schedule: Q01DX009 (ip), vehicle: gum acacia 117 % of control | dose: 200.0 mg/kg/injection, schedule: Q01DX009 (ip), vehicle: gum acacia 108 % of control | dose: 400.0 mg/kg/injection, schedule: Q01DX009 (ip), vehicle: gum acacia 107 % of control

O=C1C(=O)C2CCC1C2
inactive: dose: 25.0 mg/kg/injection, schedule: Q04DX002 (ip), vehicle: other 100 % of control | dose: 50.0 mg/kg/injection, schedule: Q04DX002 (ip), vehicle: other 98 % of control | dose: 100.0 mg/kg/injection, schedule: Q04DX002 (ip), vehicle: other 98 % of control

N#CCc1ccccc1S(=O)(=O)O
inactive: [1] 105 % of control | dose: 100.0 mg/kg/injection, schedule: Q04DX003 (ip), vehicle: saline 98 % of control | [2] 100 % of control | dose: 200.0 mg/kg/injection, schedule: Q04DX003 (ip), vehicle: saline 102 % of control | [3] 103 % of control | dose: 400.0 mg/kg/injection, schedule: Q04DX003 (ip), vehicle: saline 101 % of control

COc1ccc(C=NC(C)(C)CO)cc1
inactive: dose: 100.0 mg/kg/injection, schedule: Q01DX001 (ip), vehicle: steriod suspending solution 114 % of control | dose: 200.0 mg/kg/injection, schedule: Q01DX001 (ip), vehicle: steriod suspending solution 90 % of control | dose: 400.0 mg/kg/injection, schedule: Q01DX001 (ip), vehicle: steriod suspending solution 97 % of control

CN(C)CCOC(=O)c1cccc(CCl)c1
inactive: dose: 45.0 mg/kg/injection, schedule: Q04DX002 (ip), vehicle: saline 106 % of control | dose: 50.0 mg/kg/injection, schedule: Q04DX002 (ip), vehicle: saline 98 % of control | dose: 65.0 mg/kg/injection, schedule: Q04DX002 (ip), vehicle: saline 97 % of control | dose: 100.0 mg/kg/injection, schedule: Q04DX002 (ip), vehicle: saline 97 % of control and 102 % of control | dose: 150.0 mg/kg/injection, schedule: Q04DX002 (ip), vehicle: saline 91 % of control | dose: 200.0 mg/kg/injection, schedule: Q04DX002 (ip), vehicle: saline 94 % of control and 88 % of control | dose: 400.0 mg/kg/injection, schedule: Q04DX002 (ip), vehicle: saline 106 % of control

COc1cc(C)c2oc(C)nc2c1
inactive: [4] 92 % of control | [5] 92 % of control

O=C1CCC2OC(=O)C3CCCC1C23 (configuration not stated)
inactive: [6] 103 % of control | [7] 97 % of control | [8] 101 % of control

CCOC(=O)C(CC(=O)O)C1=CCCc2ccccc21 (configuration not stated)
inactive: [4] 96 % of control | [9] 90 % of control | dose: 200.0 mg/kg/injection, schedule: Q01DX001 (ip), vehicle: Klucel (hydroxypropylcellulose) (HPC) 104 % of control | [10] 91 % of control | [5] 90 % of control | dose: 400.0 mg/kg/injection, schedule: Q01DX009 (ip), vehicle: Klucel (hydroxypropylcellulose) (HPC) 90 % of control

ClC1(Cl)OC(Cl)(Cl)C(Cl)(Cl)OC1(Cl)Cl
inactive: dose: 50.0 mg/kg/injection, schedule: Q01DX009 (ip), vehicle: Klucel (hydroxypropylcellulose) (HPC) 98 % of control | [9] 98 % of control | [10] 102 % of control

O=P(O)(O)/C=C/c1ccccc1
inactive: [6] 97 % of control | dose: 100.0 mg/kg/injection, schedule: Q04DX003 (ip), vehicle: Klucel (hydroxypropylcellulose) (HPC) 90 % of control | [7] 91 % of control | dose: 200.0 mg/kg/injection, schedule: Q04DX003 (ip), vehicle: Klucel (hydroxypropylcellulose) (HPC) 98 % of control | [8] 98 % of control

CC(/C=C/c1ccccc1)=C1/SC(=S)NC1=O
inactive: [6] 93 % of control | [7] 96 % of control | [8] 94 % of control

O=C(O)C(O)c1cccc(Cl)c1 (configuration not stated)
inactive: dose: 75.0 mg/kg/injection, schedule: Q01DX001 (ip), vehicle: acetone 94 % of control | dose: 150.0 mg/kg/injection, schedule: Q01DX001 (ip), vehicle: acetone 94 % of control

C[N+](C)(C)N=C1CCC2(CC1)c1ccccc1-c1ccccc12
inactive: dose: 12.5 mg/kg/injection, schedule: Q01DX009 (ip), vehicle: saline 95 % of control | dose: 12.5 mg/kg/injection, schedule: Q04DX003 (ip), vehicle: saline 103 % of control | dose: 25.0 mg/kg/injection, schedule: Q01DX009 (ip), vehicle: saline 93 % of control | dose: 25.0 mg/kg/injection, schedule: Q04DX003 (ip), vehicle: saline 100 % of control | dose: 50.0 mg/kg/injection, schedule: Q04DX003 (ip), vehicle: saline 95 % of control

CC(N)(CO)C(=O)O (configuration not stated)
inactive: [1] 100 % of control | [2] 105 % of control | [3] 107 % of control

CC[N+](C)(CC)CC1CC(C)OC1=O (configuration not stated)
inactive: dose: 50.0 mg/kg/injection, schedule: Q01DX009 (ip), vehicle: saline 95 % of control | [1] 109 % of control | [2] 98 % of control

CC#CCCC(=O)OCCC
inactive: dose: 100.0 mg/kg/injection, schedule: Q04DX002 (ip), vehicle: saline with Tween-80 121 % of control | dose: 200.0 mg/kg/injection, schedule: Q04DX002 (ip), vehicle: saline with Tween-80 93 % of control | dose: 400.0 mg/kg/injection, schedule: Q04DX002 (ip), vehicle: saline with Tween-80 108 % of control

CCCCOP(=O)(Nc1ccccc1)OCCCC
inactive: dose: 100.0 mg/kg/injection, schedule: Q04DX002 (sc), vehicle: olive oil, sesame oil, peanut oil 103 % of control | dose: 200.0 mg/kg/injection, schedule: Q04DX002 (sc), vehicle: olive oil, sesame oil, peanut oil 103 % of control | dose: 400.0 mg/kg/injection, schedule: Q04DX002 (sc), vehicle: olive oil, sesame oil, peanut oil 90 % of control

CC1(C)N=C(N)N=C(N)N1c1cccc(OCCOc2ccccc2N)c1
inactive: dose: 25.0 mg/kg/injection, schedule: Q01DX001 (ip), vehicle: Klucel (hydroxypropylcellulose) (HPC) 101 % of control | dose: 50.0 mg/kg/injection, schedule: Q01DX001 (ip), vehicle: Klucel (hydroxypropylcellulose) (HPC) 101 % of control | [4] 98 % of control

COc1cc(NC2CCCCC2O)c2nc(-c3ccc(Cl)cc3)ccc2c1 (configuration not stated)
inactive: [1] 98 % of control | [2] 90 % of control | [3] 86 % of control

CNC(=O)Oc1cccc(NC(=O)OC(C)C)c1
inactive: dose: 100.0 mg/kg/injection, schedule: Q01DX009 (ip), vehicle: saline with Tween-80 97 % of control | dose: 200.0 mg/kg/injection, schedule: Q01DX009 (ip), vehicle: saline with Tween-80 98 % of control | dose: 400.0 mg/kg/injection, schedule: Q01DX009 (ip), vehicle: saline with Tween-80 92 % of control
